# Like-named read-outs stand apart in the source and are kept apart here.
# Tests used:
# [1] = molecular target: human CK2 catalytic subunit (CK2α) (Homo sapiens, UniProt P68400); assay: Radiometric (P81 filter isotopic) kinase assay, CK2 catalytic subunit; format: biochemical; details: for remaining activity at 5 µM: 5 µM compound; for remaining activity at 5 µM / remaining activity at 10 µM: read-out: Residual Activity of the Enzyme CK2α; for remaining activity at 10 µM: 10 µM compound
# [2] = molecular target: CK2 holoenzyme (CK2 α2β2) (Homo sapiens, UniProt P68400); assay: Radiometric (P81 filter isotopic) kinase assay, CK2 holoenzyme; format: biochemical; details: for remaining activity at 5 µM: 5 µM compound; for remaining activity at 5 µM / remaining activity at 10 µM: read-out: Residual Activity of the Enzyme CK2 α2β2; for remaining activity at 10 µM: 10 µM compound; for Ki: calculated from IC50 by Cheng and Prusoff equation
# Chain of CK2 holoenzyme (CK2 α2β2) (P68400 whole entry): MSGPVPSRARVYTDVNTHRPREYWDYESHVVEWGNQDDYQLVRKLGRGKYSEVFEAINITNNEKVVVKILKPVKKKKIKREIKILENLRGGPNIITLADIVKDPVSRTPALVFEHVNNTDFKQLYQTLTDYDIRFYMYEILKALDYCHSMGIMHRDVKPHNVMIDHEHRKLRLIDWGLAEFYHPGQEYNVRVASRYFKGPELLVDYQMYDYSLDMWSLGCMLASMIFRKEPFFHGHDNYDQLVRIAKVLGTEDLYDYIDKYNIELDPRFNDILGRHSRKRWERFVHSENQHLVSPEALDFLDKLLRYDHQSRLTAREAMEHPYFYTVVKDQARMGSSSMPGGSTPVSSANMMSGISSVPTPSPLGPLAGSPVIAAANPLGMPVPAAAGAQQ
# Chain of CK2 holoenzyme (CK2 α2β2) (P67870 whole entry partner): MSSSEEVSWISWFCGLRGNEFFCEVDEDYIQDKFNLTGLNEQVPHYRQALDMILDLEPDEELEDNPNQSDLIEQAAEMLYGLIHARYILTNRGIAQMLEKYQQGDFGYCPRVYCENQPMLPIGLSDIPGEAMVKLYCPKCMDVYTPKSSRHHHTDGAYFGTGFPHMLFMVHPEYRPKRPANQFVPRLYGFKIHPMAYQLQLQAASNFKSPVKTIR
# PIM1 = PIM1 (Homo sapiens, UniProt P11309); assay: Radiometric (P81 filter isotopic) kinase assay, PIM1; format: biochemical; details: for remaining activity at 5 µM: 5 µM compound; for remaining activity at 5 µM / remaining activity at 10 µM: read-out: Residual Activity of the Enzyme PIM1; for remaining activity at 10 µM: 10 µM compound; for Ki: calculated from IC50 by Cheng and Prusoff equation
# Chain of PIM1 (P11309 whole entry, species assumed): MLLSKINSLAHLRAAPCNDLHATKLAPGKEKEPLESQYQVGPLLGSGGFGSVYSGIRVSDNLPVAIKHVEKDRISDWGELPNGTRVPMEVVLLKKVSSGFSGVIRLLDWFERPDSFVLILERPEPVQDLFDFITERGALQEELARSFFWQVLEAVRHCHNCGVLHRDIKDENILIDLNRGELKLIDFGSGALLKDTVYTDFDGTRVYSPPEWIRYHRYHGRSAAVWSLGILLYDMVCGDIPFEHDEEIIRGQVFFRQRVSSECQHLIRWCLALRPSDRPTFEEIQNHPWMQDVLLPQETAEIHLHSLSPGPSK
# MCF-7 cells [3] = assay: MTT viability assay, MCF-7; format: cell-based; details: Homo sapiens
# Experimental: (§1) To test the anti-cancer effect of the TBBi derivatives, we treated the MCF-7 and MDA-MB-231 cells with the newly synthesized esters and previously reported compounds [34, 57] at the concentration range of 3.125 to 200 µM for 24 h, 48 h and 72 h. Additionally, the range of concentrations was extended by additional lower concentrations in MCF-7 for compound 4 with the minimum concentration of 0.195 µM. […] The EC50 values, describing the half maximal effective concentration of each tested compound, were calculated and are summarized in Table 2. […] We observed that the EC50 values increase in both cell lines with the elongation of fatty acids chain length in the tested compounds, thus strongly correlating with the decrease of their solubility in biological media as characterized by logS parameter (Table 2). The second reason for the decreased biological activity of the longer-chain aliphatic esters might be attributed to their greater resistance toward intracellular hydrolysis, which directly influences the slower release of the active form of the corresponding CK2 inhibitors. […] However, none of the tested compounds, except for compound 5, decreased the viability of both cell lines in a time-dependent manner (Figure 4).
# (§2) MCF-7 and MDA-MB-231 were cultured in high-glucose Dulbecco’s modified Eagle medium (DMEM, Lonza, Basel, Switzerland) supplemented with 10% fetal bovine serum (FBS, EuroClone, Siziano, Italy)), 2 mM L-glutamine, and antibiotics (100 U/mL penicillin, 100 µg/mL streptomycin) (Sigma-Aldrich Chemical Company (St. Louis, MO, USA). Cells were grown in 75-cm^2 cell culture flasks (Sarstedt, Nümbrecht, Germany) in a humidified atmosphere of CO2/air (5%/95%) at 37 °C. All the experiments were performed in exponentially growing cultures. Stock solutions of the test compounds were prepared in DMSO and stored in −80 °C for a maximum of one month. For the cytotoxicity studies, stock solutions of the tested compounds were diluted 200-fold with the proper culture medium to obtain the final concentrations.
# (§3) After incubation with the tested compounds, an MTT test was performed as described previously. Optical densities were measured at 570 nm using BioTek microplate reader (Winooski, VT, USA). All measurements were carried out in a minimum of three biological replicates.
# MDA-MB-231 cells = assay: MTT viability assay, MDA-MB-231; format: cell-based; details: Homo sapiens
# Experimental: as §1, §2, §3
# MCF-7 cells [4] = assay: Cell cycle progression by flow cytometry, MCF-7; format: cell-based, human; details: MCF-7, 72 h, compound at its EC50
# [5] = MCF7, 24 h, read-out: EC50 ± SD MCF-7
# [6] = MCF7, 48 h, read-out: EC50 ± SD MCF-7
# [7] = MCF7, 72 h, read-out: EC50 ± SD MCF-7
# [8] = 24 h, read-out: EC50 ± SD MDA-MB-231
# [9] = 48 h, read-out: EC50 ± SD MDA-MB-231
# [10] = 72 h, read-out: EC50 ± SD MDA-MB-231
# [11] = MCF7, 24 h, 48 h and 72 h, read-out: EC50 MCF-7
# [12] = 24 h, 48 h and 72 h, read-out: EC50 MDA-MB-231
# Chain of human CK2 catalytic subunit (CK2α) (P68400 whole entry): as the sequence (P68400 whole entry) above
Structure (SMILES),remaining activity at 5 µM [1] [%],remaining activity at 10 µM [1] [%],remaining activity at 5 µM [2] [%],remaining activity at 10 µM [2] [%],remaining activity at 5 µM (PIM1) [%],remaining activity at 10 µM (PIM1) [%],Ki (PIM1) [µM],EC50 (MCF-7 cells [3]; [5]) [µM],EC50 (MCF-7 cells [3]; [6]) [µM],EC50 (MCF-7 cells [3]; [7]) [µM],EC50 (MDA-MB-231 cells; [8]) [µM],EC50 (MDA-MB-231 cells; [9]) [µM],EC50 (MDA-MB-231 cells; [10]) [µM],melting point [°C],cells in G1 (MCF-7 cells [4]) [%],cells in G2M (MCF-7 cells [4]) [%],cells in S (MCF-7 cells [4]) [%],also measured
"CCCC(=O)OCCCn1cnc2c(Br)c(Br)c(Br)c(Br)c21 [Compound 3a, (4,5,6,7-Tetrabromo-1H-benzimidazol-1-yl)propyl butanoate]",71 ± 9.5,59.1 ± 3.7,58 ± 4,34.8 ± 3.4,65 ± 2.8,24.4 ± 0.9,2.23 ± 0.07,29.3 ± 1.24,23.1 ± 0.77,21.5 ± 1.86,40.8 ± 1.58,27.8 ± 1.31,24.5 ± 0.48,96 to 97,57.8,13.8,28.4,
Cc1nc2c(Br)c(Br)c(Br)c(Br)c2n1CCCO [Compound 5],26.1 ± 3.5,16.3 ± 1,14.2 ± 2,9.1 ± 0.6,9.3 ± 2.6,3.4 ± 0.3,0.15 ± 0.08,17.6 ± 6.35,16 ± 5.31,4.9 ± 2.71,57.8 ± 20.8,21 ± 9.85,9.99 ± 0.44,227 to 230,60.2,13.5,26.3,Ki ([1]; calculated from IC50 by Cheng and Prusoff equation): 0.2 ± 0.08 µM; Ki [2]: 0.05 ± 0.01 µM
"Cc1nc2c(Br)c(Br)c(Br)c(Br)c2[nH]1 [Compound 4, 4,5,6,7-tetrabromo-2-methyl-1H-benzimidazole, reference compound]",18.8 ± 1.1,7.7 ± 3.3,6 ± 0.9,2.9 ± 0.2,8 ± 0.9,4.5 ± 0.2,0.21 ± 0.02,4.12 ± 0.03,4.2 ± 0.29,2.66 ± 0.19,12.8 ± 6.6,5.35 ± 0.82,4.73 ± 0.48,,53.6,16.7,29.7,Ki [2]: 0.11 ± 0.04 µM
"CCCCCCCCCCCC(=O)OCCCn1cnc2c(Br)c(Br)c(Br)c(Br)c21 [Compound 3d, 3-(4,5,6,7-Tetrabromo-1H-benzimidazol-1-yl)propyl dodecanoate]",,,,,,,,> 100,> 100,> 100,> 100,> 100,> 100,59 to 60,,,,EC50 (MCF-7 cells [3]; [11]): > 100 µM; EC50 (MDA-MB-231 cells; [12]): > 100 µM
OCCCn1cnc2c(Br)c(Br)c(Br)c(Br)c21 [Compound 2],,,,,17.2 ± 2.3,10.1 ± 1,0.42 ± 0.02,24.1 ± 1.39,20.1 ± 1.36,19.6 ± 1.68,54.6 ± 4.32,27.2 ± 0.49,20.6 ± 0.86,,51.0,14.4,34.6,
"CCCCCC(=O)OCCCn1cnc2c(Br)c(Br)c(Br)c(Br)c21 [Compound 3b, 3-(4,5,6,7-Tetrabromo-1H-benzimidazol-1-yl)propyl hexanoate]",89.3 ± 8,83 ± 13,85.5 ± 8.3,83.1 ± 7.5,85 ± 0.1,74.2 ± 11.2,,39.6 ± 1.06,28.4 ± 1.71,24.8 ± 1.33,95.6 ± 20.4,32.2 ± 3.26,27.3 ± 1.26,65 to 67,60.5,12.2,27.3,

# More lines, main results first:
remaining activity at 5 µM [1] [%],remaining activity at 10 µM [1] [%],remaining activity at 5 µM [2] [%],remaining activity at 10 µM [2] [%],remaining activity at 5 µM (PIM1) [%],remaining activity at 10 µM (PIM1) [%],Ki (PIM1) [µM],EC50 (MCF-7 cells [3]; [5]) [µM],EC50 (MCF-7 cells [3]; [6]) [µM],EC50 (MCF-7 cells [3]; [7]) [µM],EC50 (MDA-MB-231 cells; [8]) [µM],EC50 (MDA-MB-231 cells; [9]) [µM],EC50 (MDA-MB-231 cells; [10]) [µM],melting point [°C],Structure (SMILES),cells in G1 (MCF-7 cells [4]) [%],cells in G2M (MCF-7 cells [4]) [%],cells in S (MCF-7 cells [4]) [%],also measured
0,0,0,0,2.3 ± 0.1,,,,,,,,,,"O=C(O)c1ccc2c(c1)nc(Nc1cccc(Cl)c1)c1ccncc12 [CX-4945, silmitasertib, reference compound]",33.6,22.0,44.4,
,,,,,,,> 100,> 100,> 100,> 100,> 100,> 100,69 to 70,"CCCCCCCCCCCC(=O)OCCCn1c(C)nc2c(Br)c(Br)c(Br)c(Br)c21 [Compound 6d, (4,5,6,7-Tetrabromo-2-methyl-1H-benzimidazol-1-yl)propyl dodecanoate]",,,,EC50 (MCF-7 cells [3]; [11]): > 100 µM; EC50 (MDA-MB-231 cells; [12]): > 100 µM

# From article PMC8230474, “Synthesis of Novel Acyl Derivatives of 3-(4,5,6,7-Tetrabromo-1H-benzimidazol-1-yl)propan-1-ols—Intracellular TBBi-Based CK2 Inhibitors with Proapoptotic Properties” (International Journal of Molecular Sciences, 2021)
